According to PMC10761696, “Avapritinib-based SAR studies unveil a binding pocket in KIT and PDGFRA” (Nature Communications, 2024):
Several values for one entry are separate records, joined by “and”; a condition that tells them apart may be missing. Equal values may be shown once. Read-outs that look alike come from different tables or passages of the source.

Assays:
[1] = test system: GIST-48B; assay: CellTiter-Glo (CTG) GR50, GIST-48B control cell line (off-target toxicity); conditions: ratio of GR50 values; for GIST-48B/D842V: source data sheet
[2] = test system: T1-T670I; assay: CellTiter-Glo (CTG) GR50, T1-T670I; conditions: Homo sapiens
[3] = target: KIT-D816H (Homo sapiens, UniProt P10721, D816H); assay: Activity-based HTRF KinEASE assay, KIT-D816H; format: biochemical
[4] = test system: T1-V654A; assay: CellTiter-Glo (CTG) GR50, T1-V654A; conditions: Homo sapiens
[5] = test system: T1-a-D842V; assay: CellTiter-Glo (CTG) GR50, T1-a-D842V; conditions: comparator not clearly stated
[6] = test system: MDA-MB-175VII; assay: CellTiter-Glo (CTG) EC50, MDA-MB-175VII breast cancer control cell line; format: cell-based, human; conditions: Homo sapiens, MDA-MB-175-VII
Experimental: (§1) Cell line authenticity was confirmed by STR analysis at Eurofins Genomics. All cell lines were tested regularly for mycoplasma contamination using the Mycoplasmacheck Service at Eurofins Genomics. […] Following incubation for 24 h in a humidified atmosphere at 37 °C and 5% CO2, cells were treated with inhibitors in serial dilutions ranging from 30 µM down to 0.1 nM using an Echo650 acoustic liquid handler (Beckman Coulter). Cell viability was analyzed on day 5 using the CellTiter-Glo® assay (Promega) using 500 ms integration time. The obtained data were normalized to the plate positive control (30 µM staurosporine) and negative control (DMSO) and subsequently analyzed and fitted with the Quattro Software Suite (Quattro Research) using a four-parameter logistic model. As quality control, the Z’-factor was calculated from 16 positive and negative control values. Only assay results showing a Z’-factor ≥0.5 were used for further analysis. All experimental points were measured in duplicates for each plate and were independently replicated in at least three plates.

[7] = test system: GIST-T1; assay: CellTiter-Glo (CTG) GR50, GIST-T1; conditions: for GI50: Homo sapiens
[8] = target: T1, PDGFRA-D842V (Homo sapiens, UniProt P16234, D842V); assay: Activity-based HTRF KinEASE assay, PDGFRA-D842V; format: biochemical
T1 construct: purchased Invitrogen PV4203 (lot #2343231B)

[9] = test system: SK-LMS-1; assay: CellTiter-Glo (CTG) GR50, SK-LMS-1 control cell line; conditions: for CTG GR50 SK-LMS-1, single determinations: raw data of Supp. Tab. 2, independent experiments, unit from Supp. Tab. 2; for CTG GR50 SK-LMS-1: mean ± s.d., n = 3, control cell line
[10] = test system: ZR-75-1; assay: CellTiter-Glo (CTG) EC50, ZR-75-1 breast cancer control cell line; format: cell-based, human; conditions: Homo sapiens
Experimental: as §1

[11] = test system: T1-a-5258; assay: CellTiter-Glo (CTG) GR50, T1-a-5258; conditions: Homo sapiens
[12] = test system: MDR1; assay: MDCKII-MDR1 permeability assay; conditions: dog; for efflux ratio at 2 h, 10 µM: MDCK-MDR1; for recovery at 2 h, 10 µM: MDCKII-MDR1, assay conc. 10
[13] = MDCKII-MDR1 permeability assay; conditions: dog; for Papp B→A at 2 h, 10 µM: MDCK-MDR1
[14] = test system: MDCKII-MDR1 cells; assay: MDCKII-MDR1 permeability assay; conditions: for permeability class of reference compound (Comment): reference compounds of the MDCKII-MDR1 assay
[15] = read-out: CTG GR50 T1-T670I, single determinations, raw data of Supp. Tab. 1, independent experiments, unit from Supp. Tab. 1
[16] = read-out: KIT CTG GR50 T1-T670I, mean ± s.d., n ≥ 3
[17] = mean ± s.d., n ≥ 3, ATP at KM (12 µM), read-out: HTRF IC50 KIT-D816H
[18] = raw data of Table 1, independent experiments, unit from Table 1, read-out: HTRF IC50 KIT-D816H, single determinations
[19] = read-out: CTG GR50 T1-V654A, single determinations, raw data of Supp. Tab. 1, independent experiments, unit from Supp. Tab. 1
[20] = read-out: KIT CTG GR50 T1-V654A, mean ± s.d., n ≥ 3 (* n = 2 for ava)
[21] = read-out: CTG EC50 MDA-MB-175VII, mean ± s.d., n = 3, control cell line
[22] = read-out: CTG EC50 MDA-MB-175VII, single determinations, raw data of Supp. Tab. 2, independent experiments, unit from Supp. Tab. 2
[23] = GISTT1, read-out: CTG GR50 GIST-T1, single determinations, raw data of Table 1, independent experiments, unit from Table 1
[24] = GISTT1, read-out: KIT CTG GR50 GIST-T1, mean ± s.d., n ≥ 3, GR50 half-maximal growth inhibition rate
[25] = mean ± s.d., n ≥ 3, ATP at KM (14 µM), read-out: HTRF IC50 PDGFRA-D842V
[26] = raw data of Table 1, independent experiments 1-3, unit from Table 1, read-out: HTRF IC50 PDGFRA-D842V, single determinations
[27] = ZR-75-1, mean ± s.d., n = 3, control cell line, read-out: CTG EC50 ZR-75-1
[28] = ZR-75-1, raw data of Supp. Tab. 2, independent experiments, unit from Supp. Tab. 2, read-out: CTG EC50 ZR-75-1, single determinations
[29] = read-out: CTG GR50 T1-a-5258, single determinations, raw data of Supp. Tab. 1, independent experiments, unit from Supp. Tab. 1
[30] = read-out: PDGFRA CTG GR50 T1-a-5258, mean ± s.d., n ≥ 3, triple mutant D842V, G652E, V658A
[31] = MDCK-MDR1, MDCKII-MDR1 (Papp A→B), at 10 µM, 2 h, 37 °C, unit inferred
[32] = MDCK-MDR1, Papp A->B, MDCKII-MDR1, assay conc. 10, apical to basolateral

T1 sequence (P16234 24-1089 D842V): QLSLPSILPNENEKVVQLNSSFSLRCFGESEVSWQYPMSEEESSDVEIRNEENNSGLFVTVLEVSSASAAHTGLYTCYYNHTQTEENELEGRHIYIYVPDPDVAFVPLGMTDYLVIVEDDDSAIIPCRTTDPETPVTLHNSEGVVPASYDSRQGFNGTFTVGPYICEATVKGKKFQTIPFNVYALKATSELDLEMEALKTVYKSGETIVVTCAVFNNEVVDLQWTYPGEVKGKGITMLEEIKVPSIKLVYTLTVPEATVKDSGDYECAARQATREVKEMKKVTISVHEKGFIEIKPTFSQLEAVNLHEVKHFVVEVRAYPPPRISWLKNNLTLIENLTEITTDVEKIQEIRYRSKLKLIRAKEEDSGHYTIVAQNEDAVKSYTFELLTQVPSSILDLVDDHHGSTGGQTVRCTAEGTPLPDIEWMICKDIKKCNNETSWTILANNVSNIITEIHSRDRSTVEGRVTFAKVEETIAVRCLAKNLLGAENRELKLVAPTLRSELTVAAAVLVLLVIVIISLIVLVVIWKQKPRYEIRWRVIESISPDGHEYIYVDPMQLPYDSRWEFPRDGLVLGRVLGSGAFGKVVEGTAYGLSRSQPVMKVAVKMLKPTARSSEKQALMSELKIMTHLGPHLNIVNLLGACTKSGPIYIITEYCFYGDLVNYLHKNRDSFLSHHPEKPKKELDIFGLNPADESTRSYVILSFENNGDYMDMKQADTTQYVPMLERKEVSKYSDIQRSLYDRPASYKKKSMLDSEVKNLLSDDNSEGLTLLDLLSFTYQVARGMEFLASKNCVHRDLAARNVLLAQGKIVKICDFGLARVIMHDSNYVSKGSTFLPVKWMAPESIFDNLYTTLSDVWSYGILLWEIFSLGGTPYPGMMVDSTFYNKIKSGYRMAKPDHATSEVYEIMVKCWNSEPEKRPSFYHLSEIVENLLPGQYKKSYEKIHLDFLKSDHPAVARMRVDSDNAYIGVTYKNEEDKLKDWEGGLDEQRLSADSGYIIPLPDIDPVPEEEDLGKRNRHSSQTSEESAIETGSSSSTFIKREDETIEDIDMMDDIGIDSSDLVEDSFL
Sequence of KIT-D816H (P10721 26-976 D816H): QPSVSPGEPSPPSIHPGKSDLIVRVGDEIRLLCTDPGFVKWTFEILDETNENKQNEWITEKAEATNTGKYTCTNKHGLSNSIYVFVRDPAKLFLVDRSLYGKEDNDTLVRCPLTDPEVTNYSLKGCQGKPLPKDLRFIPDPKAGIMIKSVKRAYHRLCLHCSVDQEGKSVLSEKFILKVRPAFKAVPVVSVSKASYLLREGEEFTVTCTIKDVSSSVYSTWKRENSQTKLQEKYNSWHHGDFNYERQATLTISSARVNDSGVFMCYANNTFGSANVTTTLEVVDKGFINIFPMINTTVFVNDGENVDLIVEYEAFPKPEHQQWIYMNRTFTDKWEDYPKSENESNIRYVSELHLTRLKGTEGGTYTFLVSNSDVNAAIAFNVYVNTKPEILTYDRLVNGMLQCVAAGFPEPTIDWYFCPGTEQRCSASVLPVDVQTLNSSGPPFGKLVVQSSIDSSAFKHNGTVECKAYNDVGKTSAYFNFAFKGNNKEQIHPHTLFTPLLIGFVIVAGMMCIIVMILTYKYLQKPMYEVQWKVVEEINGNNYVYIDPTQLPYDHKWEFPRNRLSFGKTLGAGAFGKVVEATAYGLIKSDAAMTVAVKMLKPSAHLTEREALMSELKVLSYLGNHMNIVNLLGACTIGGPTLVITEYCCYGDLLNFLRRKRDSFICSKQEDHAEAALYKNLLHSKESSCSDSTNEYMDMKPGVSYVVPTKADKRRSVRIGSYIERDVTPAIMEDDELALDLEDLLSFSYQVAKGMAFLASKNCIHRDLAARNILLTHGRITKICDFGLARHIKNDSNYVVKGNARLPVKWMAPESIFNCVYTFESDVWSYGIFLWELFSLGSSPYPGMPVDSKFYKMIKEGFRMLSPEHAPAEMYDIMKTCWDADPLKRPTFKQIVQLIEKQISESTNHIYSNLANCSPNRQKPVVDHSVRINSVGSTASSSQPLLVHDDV

| IC50 [3, 17] [nM] | IC50 [3, 18] | EC50 [6, 21] [nM] | EC50 [6, 22] [nM] | IC50 [8, 25] [nM] | IC50 [8, 26] | EC50 [10, 27] [nM] | EC50 [10, 28] [nM] | Papp B→A at 2 h, 10 µM [13] [×10⁻⁶ cm/s] | SMILES | ratio GIST-48B/ T1-a-D842V [1] | GIST-48B/D842V [1] | GI50 [2, 15] [nM] | GI50 [2, 16] [nM] | GI50 [4, 19] [nM] | GI50 [4, 20] [nM] | GI50 [7, 23] [nM] | GI50 [7, 24] [nM] | CTG GR50 SK-LMS-1, single determinations [9] | GI50 [11, 29] [nM] | GI50 [11, 30] [nM] | also measured |
| --- | --- | --- | --- | --- | --- | --- | --- | --- | --- | --- | --- | --- | --- | --- | --- | --- | --- | --- | --- | --- | --- |
| 0.5 ± 0.1 | 0.38 nM and 0.43 nM and 0.65 nM | ≥ 10000 | ≥ 10000 | < 0.1 | < 0.1 nM | ≥ 10000 | ≥ 10000 | 5.43 | CC(=O)N[C@@](C)(c1ccc(F)cc1)c1cnc(N2CCN(c3ncnn4cc(-c5cnn(C)c5)cc34)CC2)nc1 [Compound 10] | 186 | 186 | 376 | 386 ± 39 | 268 | 293 ± 83 | 44 | 39 ± 6 | 6.361 µM and 10 µM | 1570 | 2060 ± 430 | efflux ratio at 2 h, 10 µM [12]: 0.48; recovery at 2 h, 10 µM ([12]; MDCK-MDR1, Recovery A->B): 44.1%; recovery at 2 h, 10 µM ([12]; MDCK-MDR1, Recovery B->A): 48.4%; Papp A→B at 2 h, 10 µM [13, 31]: 11.3 ×10⁻⁶ cm/s; Papp A→B at 2 h, 10 µM [13, 32]: 11.3 ×10⁻⁶ cm/s; CTG GR50 SK-LMS-1 [9]: 8.787 ± 2.101 µM and 8.787 µM |
| 0.5 ± 0.2 | 0.7 nM and 0.54 nM and 0.37 nM | ≥ 10000 | ≥ 10000 | < 0.1 | < 0.1 nM | ≥ 10000 | ≥ 10000 | 1.99 | C=CC(=O)N[C@@](C)(c1ccc(F)cc1)c1cnc(N2CCN(c3ncnn4cc(-c5cnn(C)c5)cc34)CC2)nc1 [Compound 11] | 144 | 144 | 402 | 413 ± 44 | 302 | 347 ± 108 | 46 | 39 ± 7 |  | 2970 | 3380 ± 360 | efflux ratio at 2 h, 10 µM [12]: 0.2; recovery at 2 h, 10 µM ([12]; MDCK-MDR1, Recovery A->B): 34.2%; recovery at 2 h, 10 µM ([12]; MDCK-MDR1, Recovery B->A): 38.9%; Papp A→B at 2 h, 10 µM [13, 31]: 10.1 ×10⁻⁶ cm/s; CTG GR50 SK-LMS-1 [9]: 6.459 ± 3.067 µM and 6.459 µM |
|  |  |  |  |  |  |  |  | 15.4 ± 16 | C[C@H]1O[C@@H](O[C@H]2[C@@H](O)C[C@H](O[C@H]3[C@@H](O)C[C@H](O[C@H]4CC[C@@]5(C)[C@H](CC[C@@H]6[C@@H]5C[C@@H](O)[C@]5(C)[C@@H](C7=CC(=O)OC7)CC[C@]65O)C4)O[C@@H]3C)O[C@@H]2C)C[C@H](O)[C@@H]1O [digoxin, reference compound] |  |  |  |  |  |  |  |  |  |  |  | Papp A→B at 2 h, 10 µM ([13]; MDCK-MDR1, MDCKII-MDR1 (PappA→B), reference compounds, mean over routine assay runs): 1.9 ± 4.5 ×10⁻⁶ cm/s; permeability class of reference compound (Comment) [14]: efflux |

The next lines start with the compound.

| SMILES | IC50 [3, 17] [nM] | IC50 [3, 18] | EC50 [6, 21] [nM] | EC50 [6, 22] [nM] | IC50 [8, 25] [nM] | IC50 [8, 26] | EC50 [10, 27] [nM] | EC50 [10, 28] [nM] | Papp B→A at 2 h, 10 µM [13] [×10⁻⁶ cm/s] | ratio GIST-48B/ T1-a-D842V [1] | GIST-48B/D842V [1] | GI50 [2, 15] [nM] | GI50 [2, 16] [nM] | GI50 [4, 19] [nM] | GI50 [4, 20] [nM] | GI50 [7, 23] [nM] | GI50 [7, 24] [nM] | CTG GR50 SK-LMS-1, single determinations [9] | GI50 [11, 29] [nM] | GI50 [11, 30] [nM] | also measured |
| --- | --- | --- | --- | --- | --- | --- | --- | --- | --- | --- | --- | --- | --- | --- | --- | --- | --- | --- | --- | --- | --- |
| Cn1cc(-c2cc3c(N4CCC5(CC4)CN(c4ncc(Cc6ccccc6)cn4)C5)ncnn3c2)cn1 [Compound 7] | 204 ± 84 | 283 nM and 116 nM and 213 nM | ≥ 10000 | ≥ 10000 | 749 ± 142 | 563 nM and 909 nM and 773 nM | ≥ 10000 | ≥ 10000 |  | 1 | 1.22 | ≥ 10000 | ≥ 10000 | 6130 | 6730 ± 439 | 824 | 709 ± 196 | ≥10 µM | 9970 | 9520 ± 810 | fold decrease in potency, T1-a-D842V [5]: > 500 fold; fold decrease in potency, GIST-T1 ([7]; comparator not clearly stated): ~ 17 fold |
| COC(=O)N[C@@](C)(c1ccc(F)cc1)c1cnc(N2CCN(c3ncnn4cc(-c5cnn(C)c5)cc34)CC2)nc1 [Compound 12] | 0.6 ± 0.4 | 1.1 nM and 0.3 nM and 0.53 nM | ≥ 10000 | ≥ 10000 | 0.2 ± 0.1 | 0.3 nM and 0.2 nM and 0.1 nM | ≥ 10000 | ≥ 10000 | 2.76 | 256 | 256 | 620 | 695 ± 135 |  | 474 ± 155 | 71 | 60 ± 12 | 6.084 µM and 5.919 µM and 10 µM | 2400 | 2220 ± 350 | efflux ratio at 2 h, 10 µM [12]: 0.22; recovery at 2 h, 10 µM ([12]; MDCK-MDR1, Recovery A->B): 25.4%; recovery at 2 h, 10 µM ([12]; MDCK-MDR1, Recovery B->A): 49.7%; Papp A→B at 2 h, 10 µM [13, 31]: 12.4 ×10⁻⁶ cm/s; Papp A→B at 2 h, 10 µM [13, 32]: 12.4 ×10⁻⁶ cm/s; CTG GR50 SK-LMS-1 [9]: 7.334 ± 2.31 µM and 7.334 µM |
| CC(C)NCC(O)COc1cccc2ccccc12 (stereo not drawn) [propranolol, reference compound] |  |  |  |  |  |  |  |  |  |  |  |  |  |  |  |  |  |  |  |  | permeability class of reference compound (Comment) [14]: highly permeable; permeability class of reference compound (Comment) ([14]; listed as Propanolol): permeable; MDCKII-MDR1 (PappA→B) ([14]; reference compounds, mean over routine assay runs): 32 ± 10.3 10-6 cm/s |
